{
  "source": "patent US20260242418A1",
  "about": "“CYCLIC PEPTIDES WITH ANTIBACTERIAL ACTIVITY AGAINST MULTIDRUG RESISTANT (MDR) PATHOGENS” (priority 2022, published 2026)",
  "key": {"[1]": {"system": "P. aeruginosa ATCC 27853", "test": "Time-kill curves", "format": "cell-based, Pseudomonas aeruginosa", "experimental": "Time-kill curves (TKC) determine the in vitro antimicrobial activity of a compound, monitoring the bacterial growth over a certain period of time.\nThis assay was performed for two Acinetobacter baumannii strains (a clinical strain and ATCC 19606 strain) and one Pseudomonas aeruginosa ATCC 27853 strain, monitoring its growth during 24 hours at different PLP-3 (SEQ ID NO: 4) concentrations: MIC, 2×MIC, 4×MIC, 8×MIC. Moreover, in each TKC assay a negative and a positive growth control was stablished.\nIn different 13MI tubes, a certain concentration of PLP-3 peptide, Mueller-Hinton Broth (MHB, 1214, Condalab) and a fixed inoculum concentration were added. The final inoculum concentration in each tube was […]. Tubes were incubated at 37° C. at 180 rpm during 24 hours. Aliquots of the liquid culture were taken at different times: 0 h, 10 minutes, 30 minutes, 1 h, 2 h, 4 h, 8 h and 24 h. For each taken aliquot, serial dilutions with Phosphate Saline Buffer 1× (PBS 1×) were made and streaked in Luria-Bertani Agar (LB, 1083, Condalab). LB Agar plates were incubated at 37° C. during 18-22 hours. Grown colonies in LB Agar were counted in order to quantify the inoculum in each time period.\nThree biological replicates were performed for each strain, and the mean and standard deviation was determined each time."}, "[2]": {"system": "human erythrocytes", "test": "in vitro", "format": "cell-based", "settings": "red cells of human", "experimental": "(§1) A 50% haematocrit solution (1:1 PBS 1×, P5493, 1 L, Sigma) was obtained from a commercially available human blood sample by performing 3 consecutive washes with PBS 1× and centrifuging at 2600 rpm for 10 minutes between washes. A final 4% erythrocyte solution was prepared with PBS 1× and chilled on ice until used.\n(§2) Colistin and SEQ ID NO: 4 (PLP-3) stocks were prepared at 256 μg/mL in MHB and left at 4 C until used.\n(§3) 96-well, round bottom plates were filled with 50 μL PBS 1× but for the haemolysis controls, which were left empty. 50 μL of each antimicrobial were added to the first column of each plate and serial dilution was performed. Then 50 μL of 4% erythrocyte solution were added to all wells of the plate and gently resuspended. Positive control consisted in PBS 1× and erythrocytes while haemolysis control was settled at 1% Triton™ X-100 (TX-100, 9002-93-1, 100 mL, Sigma) and erythrocytes.\n(§4) Plates were incubated for 4 h at 37° C. and then centrifuged at 1500 rpm 5 min. […] An EPOCH™ spectrophotometer was used to read the plates at 450 nm.\n(§5) Haemolysis assays of human erythrocytes were done using 1% TX-100 as a control for total haemolysis and absorbance values of PLP-3 were represented in relation to total haemolysis (TX-100 values)."}, "[3]": {"test": "in vitro", "format": "cell-based, human", "settings": "human, haemolysis % relative to 1% TX-100 at 64 ug/mL PLP-3", "experimental": "as §1, §2, §3, §4, §5"}, "[4]": {"system": "A. baumannii", "format": "cell-based", "settings": "for Folds: with vs w/o albumin", "experimental": "(§6) To assess antimicrobial activity of PLP3 in a physiological relevant environment, MICs were performed at physiological human albumin concentrations. To this end, Mueller-Hinton broth (MHB) was supplemented with 40 mg/mL human albumin (A1653-5G, Merck) and broth microdilution protocol was used. SEQ ID NO: 4 (PLP-3) and colistin stocks were prepared both in MHB and albumin supplemented MHB. These were used for comparison of MICs in the presence or absence of albumin, and as a control."}, "[5]": {"system": "P. aeruginosa", "format": "cell-based", "settings": "for Folds: with vs w/o albumin", "experimental": "as §6"}},
  "note": "Where two headings read alike, the source gives them in different places.",
  "data": [
    {"smiles": "CC(C)C[C@@H]1NC(=O)[C@H](CCCNC(=N)N)NC(=O)[C@H](CCCNC(=N)N)NC(=O)[C@H](CCCNC(=N)N)NC(=O)[C@H]2CCCN2C(=O)[C@H](CCCNC(=N)N)NC(=O)[C@H](CCCNC(=N)N)NC(=O)[C@H](C(C)C)NC(=O)[C@@H]2CSSC[C@H](NC1=O)C(=O)N[C@@H](Cc1ccccc1)C(=O)N[C@@H](C(C)C)C(=O)N[C@@H](CCCNC(=N)N)C(=O)N1CCC[C@@H]1C(=O)N[C@@H](CCCCN)C(=O)N[C@@H](Cc1ccccc1)C(=O)N[C@@H](C(C)C)C(=O)N[C@@H](C(C)C)C(=O)N2", "note": "[PLP-3, cyclo[RRRLCFVRPKFVVCVRRP]]", "values": [
      {"measurement": "log(CFU/mL) Mean", "setting": "[1]; 2xMIC (16 μg/mL), 0.00 h", "value": "5.52 log(CFU/mL)"},
      {"measurement": "log(CFU/mL) Mean", "setting": "[1]; 2xMIC (16 μg/mL), 0.17 h", "value": "4.48 log(CFU/mL)"},
      {"measurement": "log(CFU/mL) Mean", "setting": "[1]; 2xMIC (16 μg/mL), 0.50 h", "value": "3.75 log(CFU/mL)"},
      {"measurement": "log(CFU/mL) Mean", "setting": "[1]; 2xMIC (16 μg/mL), 1.00 h", "value": "2.97 log(CFU/mL)"},
      {"measurement": "log(CFU/mL) Mean", "setting": "[1]; 2xMIC (16 μg/mL), 2.00 h", "value": "0.88 log(CFU/mL)"},
      {"measurement": "log(CFU/mL) Mean", "setting": "[1]; 2xMIC (16 μg/mL), 4.00 h", "value": "0.00 log(CFU/mL)"},
      {"measurement": "log(CFU/mL) Mean", "setting": "[1]; 2xMIC (16 μg/mL), 8.00 h", "value": "0.00 log(CFU/mL)"},
      {"measurement": "log(CFU/mL) Mean", "setting": "[1]; 2xMIC (16 μg/mL), 24.00 h", "value": "0.00 log(CFU/mL)"},
      {"measurement": "log(CFU/mL) Mean", "setting": "[1]; 4xMIC (32 μg/mL), 0.00 h", "value": "5.52 log(CFU/mL)"},
      {"measurement": "log(CFU/mL) Mean", "setting": "[1]; 4xMIC (32 μg/mL), 0.17 h", "value": "4.32 log(CFU/mL)"},
      {"measurement": "log(CFU/mL) Mean", "setting": "[1]; 4xMIC (32 μg/mL), 0.50 h", "value": "3.46 log(CFU/mL)"},
      {"measurement": "log(CFU/mL) Mean", "setting": "[1]; 4xMIC (32 μg/mL), 1.00 h", "value": "1.23 log(CFU/mL)"},
      {"measurement": "log(CFU/mL) Mean", "setting": "[1]; 4xMIC (32 μg/mL), 2.00 h", "value": "0.57 log(CFU/mL)"},
      {"measurement": "log(CFU/mL) Mean", "setting": "[1]; 4xMIC (32 μg/mL), 4.00 h", "value": "0.00 log(CFU/mL)"},
      {"measurement": "log(CFU/mL) Mean", "setting": "[1]; 4xMIC (32 μg/mL), 8.00 h", "value": "0.00 log(CFU/mL)"},
      {"measurement": "log(CFU/mL) Mean", "setting": "[1]; 4xMIC (32 μg/mL), 24.00 h", "value": "0.00 log(CFU/mL)"},
      {"measurement": "log(CFU/mL) Mean", "setting": "[1]; 8xMIC (64 μg/mL), 0.00 h", "value": "5.52 log(CFU/mL)"},
      {"measurement": "log(CFU/mL) Mean", "setting": "[1]; 8xMIC (64 μg/mL), 0.17 h", "value": "4.14 log(CFU/mL)"},
      {"measurement": "log(CFU/mL) Mean", "setting": "[1]; 8xMIC (64 μg/mL), 0.50 h", "value": "1.43 log(CFU/mL)"},
      {"measurement": "log(CFU/mL) Mean", "setting": "[1]; 8xMIC (64 μg/mL), 1.00 h", "value": "0.00 log(CFU/mL)"},
      {"measurement": "log(CFU/mL) Mean", "setting": "[1]; 8xMIC (64 μg/mL), 2.00 h", "value": "0.00 log(CFU/mL)"},
      {"measurement": "log(CFU/mL) Mean", "setting": "[1]; 8xMIC (64 μg/mL), 4.00 h", "value": "0.00 log(CFU/mL)"},
      {"measurement": "log(CFU/mL) Mean", "setting": "[1]; 8xMIC (64 μg/mL), 8.00 h", "value": "0.00 log(CFU/mL)"},
      {"measurement": "log(CFU/mL) Mean", "setting": "[1]; 8xMIC (64 μg/mL), 24.00 h", "value": "0.00 log(CFU/mL)"},
      {"measurement": "log(CFU/mL) Mean", "setting": "[1]; MIC (8 μg/mL), 0.00 h", "value": "5.52 log(CFU/mL)"},
      {"measurement": "log(CFU/mL) Mean", "setting": "[1]; MIC (8 μg/mL), 0.17 h", "value": "4.81 log(CFU/mL)"},
      {"measurement": "log(CFU/mL) Mean", "setting": "[1]; MIC (8 μg/mL), 0.50 h", "value": "4.34 log(CFU/mL)"},
      {"measurement": "log(CFU/mL) Mean", "setting": "[1]; MIC (8 μg/mL), 1.00 h", "value": "3.67 log(CFU/mL)"},
      {"measurement": "log(CFU/mL) Mean", "setting": "[1]; MIC (8 μg/mL), 2.00 h", "value": "3.15 log(CFU/mL)"},
      {"measurement": "log(CFU/mL) Mean", "setting": "[1]; MIC (8 μg/mL), 4.00 h", "value": "2.63 log(CFU/mL)"},
      {"measurement": "log(CFU/mL) Mean", "setting": "[1]; MIC (8 μg/mL), 8.00 h", "value": "2.10 log(CFU/mL)"},
      {"measurement": "log(CFU/mL) Mean", "setting": "[1]; MIC (8 μg/mL), 24.00 h", "value": "5.08 log(CFU/mL)"},
      {"measurement": "bactericidal or bacteriostatic activity", "setting": "[1]; time-kill curves over 24 hours, MIC to 8xMIC", "value": "bactericidal effect"},
      {"measurement": "IC50 from the haemolysis curve", "setting": "[2]", "value": 48.53, "unit": "µg/mL"},
      {"measurement": "hemolysis at 4 h, 64 ug/mL", "setting": "[3]", "value": 62.6, "unit": "%"},
      {"measurement": "MIC With Albumin 40 mg/mL", "setting": "[4]; strain ATCC 17978", "value": 4, "unit": "µg/mL"},
      {"measurement": "MIC w/o Albumin", "setting": "[4]; strain ATCC 17978", "value": 1, "unit": "µg/mL"},
      {"measurement": "Folds", "setting": "[4]; strain ATCC 17978", "value": 2},
      {"measurement": "MIC With Albumin 40 mg/mL", "setting": "[4]; strain CR17", "value": 2, "unit": "µg/mL"},
      {"measurement": "MIC w/o Albumin", "setting": "[4]; strain CR17", "value": 1, "unit": "µg/mL"},
      {"measurement": "Folds", "setting": "[4]; strain CR17", "value": 1},
      {"measurement": "MIC With Albumin 40 mg/mL", "setting": "[5]; strain ATCC 27853", "value": 8, "unit": "µg/mL"},
      {"measurement": "MIC w/o Albumin", "setting": "[5]; strain ATCC 27853", "value": 2, "unit": "µg/mL"},
      {"measurement": "Folds", "setting": "[5]; strain ATCC 27853", "value": 2},
      {"measurement": "MIC With Albumin 40 mg/mL", "setting": "[5]; strain R2", "value": 32, "unit": "µg/mL"},
      {"measurement": "MIC w/o Albumin", "setting": "[5]; strain R2", "value": 4, "unit": "µg/mL"},
      {"measurement": "Folds", "setting": "[5]; strain R2", "value": 3}
    ]}
  ]
}
